Results reported in US20250353847A1, “CRYSTALLINE FORMS OF AN AKRIC3 DEPENDENT KARS INHIBITOR” (Novartis AG, priority 2022, published 2025).

How the values were obtained:
Format in all cases: physicochemical
[1] = Slurry experiments of Form A and Hydrate HA in media with different water activities
Procedure: Form A is stable at water activities of aw=0.7 and below, whereas the hydrate is stable at aw=0.9 and above. At 40° C. Form A is stable at water activities of aw=0.8 and below, whereas the hydrate is stable at aw>0.95.

Humidity controlled XRPD = assay: Humidity controlled XRPD
[2] = Solid form transformation / decomposition upon heating; details: heating
Procedure: DSC thermograms were recorded with a TA Discovery DSC instrument using heat flux compensation (TA Instruments, USA). The TA Discovery instrument was calibrated for temperature and enthalpy according to the manufacturer's instructions using certified reference substances like indium. About 2 mg of sample material was sealed in a standard pin-holed aluminum pan and heated in the DSC from 0° C. to 300° C., at a heating rate of 10° C./min. Dry nitrogen gas, at a flow rate of 50 ml/min was used to purge the DSC equipment during the measurement.
Thermogravimetric analysis was performed using a TA Discovery TGA instrument (TA Instruments, USA). About 2-10 mg of sample material was sealed in a standard aluminum pan with pierced lid and heated in the TGA from 30° C. to 250° C., at a heating rate of 10° C./min. Dry N2 gas, at a flow rate of 20 ml/min was used to purge the TGA equipment during the measurement.

O=C1CC2(CCN(C(=O)NCc3ccc(F)cc3)CC2)Nc2ccc(F)cc21 [Hydrate HA, 6′-fluoro-N-(4-fluorobenzyl)-4′-oxo-3′,4′-dihydro-1′H-spiro[piperidine-4,2′-quinoline]-1-carboxamide]
Water activity (aw) at which the form is stable ([1]; 25° C.): ≥ 0.9
Water activity (aw) at which the form is stable ([1]; 40° C.): > 0.95
Form change after exposure to low humidity (Humidity controlled XRPD; about 12 hours at 5% RH): XRPD pattern changed to Form E
Stability of form in humidity controlled XRPD (Humidity controlled XRPD; relative humidity decreased from 40% RH to 5% RH at 25° C.): remains stable
Temperature of transformation into Form E [2]: about 70 °C
